Tests used:
Format in all cases: binding
SARS-CoV-2 Nsp3 Mac1 [1] = target: T1, SARS-CoV-2 Nsp3 Mac1 (Severe acute respiratory syndrome coronavirus 2, UniProt P0DTD1); details: fragments 0.188 to 3 mM concentration response
SARS-CoV-2 Nsp3 Mac1 [2] = target: T1, SARS-CoV-2 Nsp3 Mac1; test: biochemical; details: ADPr-peptide displacement from His6-Mac1; ± estimated SE
SARS-CoV-2 Nsp3 Mac1 [3] = target: T1, SARS-CoV-2 Nsp3 Mac1; test: biochemical

Row | Compound | effect on apparent melting temperature (Tma) in DSF, in words (SARS-CoV-2 Nsp3 Mac1 [1]) | IC50 (SARS-CoV-2 Nsp3 Mac1 [2]) | Kd (SARS-CoV-2 Nsp3 Mac1 [3])
1 | Cc1c(C)n(Cc2ccco2)c2ncnc(N)c12 [ZINC3888754] | stabilized Mac1 | – | –
2 | Cn1cnc2c(N)nc(N)nc21 [ZINC26180281] | stabilized Mac1 | > 2000 µM | 2900 ± 700 µM
3 | CN(CC1CCCOC1)c1ncc(O)cn1 (stereo not drawn) [ZINC1337772170] | not identified as binders | 971 µM | –
4 | Nc1nc2nccnc2c(=O)[nH]1 [pterin] | not identified as binders | 784 µM | –
5 | adenosine diphosphate ribose [ADP-ribose, reference compound] | substantial elevation | – | –
